What was measured:
Assay type in all cases: functional
SN12C = assay: Growth inhibition of human SN12C cells after 48 hrs by SRB protein assay
OVCAR-5 = assay: Growth inhibition of human OVCAR5 cells after 48 hrs by SRB protein assay; conditions: OVCAR-5, 48 h
SK-OV-3 = assay: Growth inhibition of human SK-OV-3 cells after 48 hrs by SRB protein assay; conditions: SK-OV-3, 48 h
IGROV-1 = assay: Growth inhibition of human IGROV1 cells after 48 hrs by SRB protein assay; conditions: IGROV-1, 48 h
MDA-MB-231 = assay: Growth inhibition of MDA-MB-231 cells after 48 hrs by SRB protein assay; conditions: Homo sapiens, MDA-MB-231, 48 h
PC-3 = assay: Growth inhibition of human PC3 cells after 48 hrs by SRB protein assay; conditions: PC-3, 48 h
OVCAR-8 = assay: Growth inhibition of human OVCAR8 cells after 48 hrs by SRB protein assay; conditions: OVCAR-8, 48 h
SNB-19 = assay: Growth inhibition of human SNB19 cells after 48 hrs by SRB protein assay; conditions: SNB-19, 48 h
M14 = assay: Growth inhibition of human M14 cells after 48 hrs by SRB protein assay; conditions: M14, 48 h
SW-620 = assay: Growth inhibition of human SW620 cells after 48 hrs by SRB protein assay; conditions: SW-620, 48 h
HCT-15 = assay: Growth inhibition of human HCT15 cells after 48 hrs by SRB protein assay; conditions: HCT-15, 48 h
DU-145 = assay: Growth inhibition of human DU145 cells after 48 hrs by SRB protein assay; conditions: DU-145, 48 h
SNB-75 = assay: Growth inhibition of human SNB75 cells after 48 hrs by SRB protein assay; conditions: SNB-75, 48 h
NCI-H460 = assay: Growth inhibition of human NCI-H460 cells after 48 hrs by SRB protein assay; conditions: NCI-H460, 48 h
KM12 = assay: Growth inhibition of human KM12 cells after 48 hrs by SRB protein assay; conditions: KM12, 48 h
MCF7 = assay: Growth inhibition of human MCF7 cells after 48 hrs by SRB protein assay; conditions: MCF7, 48 h
HT-29 = assay: Growth inhibition of human HT29 cells after 48 hrs by SRB protein assay; conditions: HT-29, 48 h
T47D = assay: Growth inhibition of human T47D cells after 48 hrs by SRB protein assay
CAKI-1 = assay: Growth inhibition of human CAKI1 cells after 48 hrs by SRB protein assay; conditions: CAKI-1, 48 h
UO-31 = assay: Growth inhibition of human UO31 cells after 48 hrs by SRB protein assay; conditions: UO-31, 48 h
SF-268 = assay: Growth inhibition of human SF268 cells after 48 hrs by SRB protein assay; conditions: SF-268, 48 h
UACC-257 = assay: Growth inhibition of human UACC257 cells after 48 hrs by SRB protein assay; conditions: UACC-257, 48 h
HOP-62 = assay: Growth inhibition of human HOP62 cells after 48 hrs by SRB protein assay; conditions: HOP-62, 48 h
HCT-116 = assay: Growth inhibition of human HCT116 cells after 48 hrs by SRB protein assay; conditions: HCT-116, 48 h
NCI-H522 = assay: Growth inhibition of human NCI-H522 cells after 48 hrs by SRB protein assay; conditions: NCI-H522, 48 h
HCC 2998 = assay: Growth inhibition of human HCC2998 cells after 48 hrs by SRB protein assay; conditions: HCC 2998, 48 h
NCI-H23 = assay: Growth inhibition of human NCI-H23 cells after 48 hrs by SRB protein assay; conditions: NCI-H23, 48 h
EKVX = assay: Growth inhibition of human EKVX cells after 48 hrs by SRB protein assay
RXF 393 = assay: Growth inhibition of human RXF393 cells after 48 hrs by SRB protein assay; conditions: RXF 393, 48 h
SK-MEL-28 = assay: Growth inhibition of human SK-MEL-28 cells after 48 hrs by SRB protein assay; conditions: SK-MEL-28, 48 h
Hs-578T = assay: Growth inhibition of human HS578T cells after 48 hrs by SRB protein assay
SK-MEL-5 = assay: Growth inhibition of human SK-MEL-5 cells after 48 hrs by SRB protein assay; conditions: SK-MEL-5, 48 h
CCRF-CEM = assay: Growth inhibition of human CCRF-CEM cells after 48 hrs by SRB protein assay
HOP-92 = assay: Growth inhibition of human HOP92 cells after 48 hrs by SRB protein assay; conditions: HOP-92, 48 h
COLO 205 = assay: Growth inhibition of human COLO205 cells after 48 hrs by SRB protein assay; conditions: COLO 205, 48 h
OVCAR-3 = assay: Growth inhibition of human OVCAR-3 cells after 48 hrs by SRB protein assay; conditions: OVCAR-3, 48 h
UACC-62 = assay: Growth inhibition of human UACC62 cells after 48 hrs by SRB protein assay; conditions: UACC-62, 48 h
MDA-MB-435 = assay: Growth inhibition of human MDA-MB-435 cells after 48 hrs by SRB protein assay; conditions: MDA-MB-435, 48 h
SF-539 = assay: Growth inhibition of human SF539 cells after 48 hrs by SRB protein assay; conditions: SF-539, 48 h

In the case of `Nc1nc2[nH]cnc2c(=S)[nH]1` [THIOGUANINE], the GI50 (SN12C) was 1.26 µM, the TGI (SN12C; read-out: Log TGI (converted)) was 174 µM and the GI50 (OVCAR-5) was 0.661 µM. It also gave a TGI (OVCAR-5; read-out: Log TGI (converted)) of 47.9 µM, a GI50 (SK-OV-3) of 0.55 µM and a TGI (SK-OV-3; read-out: Log TGI (converted)) of 16.6 µM. The GI50 (IGROV-1) was 4.79 µM, the TGI (IGROV-1; read-out: Log TGI (converted)) was 145 µM and the GI50 (MDA-MB-231) was 1.95 µM. For the same molecule, the TGI (MDA-MB-231; read-out: Log TGI (converted)) was 166 µM, the GI50 (PC-3) was 1.78 µM and the TGI (PC-3; read-out: Log TGI (converted)) was 174 µM. The GI50 (OVCAR-8) was 0.692 µM, the TGI (OVCAR-8; read-out: Log TGI (converted)) was 60.3 µM and the GI50 (SNB-19) was 79.4 µM. It also gave a TGI (SNB-19; read-out: Log TGI (converted)) of 245 µM, a GI50 (M14) of 0.589 µM and a TGI (M14; read-out: Log TGI (converted)) of 14.5 µM. The GI50 (SW-620) was 18.6 µM, the TGI (SW-620; read-out: Log TGI (converted)) was 63.1 µM and the GI50 (HCT-15) was 1.1 µM. The TGI (HCT-15; read-out: Log TGI (converted)) was 51.3 µM, the GI50 (DU-145) was 0.794 µM and the TGI (DU-145; read-out: Log TGI (converted)) was 135 µM. It also gave a GI50 (SNB-75) of 1.45 µM, a TGI (SNB-75; read-out: Log TGI (converted)) of 41.7 µM and a GI50 (NCI-H460) of 0.676 µM. The TGI (NCI-H460; read-out: Log TGI (converted)) was 20 µM, the GI50 (KM12) was 1.74 µM and the TGI (KM12; read-out: Log TGI (converted)) was 31.6 µM. For the same molecule, the GI50 (MCF7) was 0.708 µM, the TGI (MCF7; read-out: Log TGI (converted)) was 42.7 µM and the GI50 (HT-29) was 1.15 µM. For the same molecule, the TGI (HT-29; read-out: Log TGI (converted)) was 105 µM, the GI50 (T47D) was 2.04 µM and the TGI (T47D; read-out: Log TGI (converted)) was 107 µM. It also gave a GI50 (CAKI-1) of 0.537 µM, a TGI (CAKI-1; read-out: Log TGI (converted)) of 15.8 µM and a GI50 (UO-31) of 1.48 µM. The TGI (UO-31; read-out: Log TGI (converted)) was 32.4 µM, the GI50 (SF-268) was 1.15 µM and the TGI (SF-268; read-out: Log TGI (converted)) was 158 µM. It also gave a GI50 (UACC-257) of 2 µM, a TGI (UACC-257; read-out: Log TGI (converted)) of 97.7 µM and a GI50 (HOP-62) of 0.741 µM. For the same molecule, the TGI (HOP-62; read-out: Log TGI (converted)) was 28.8 µM, the GI50 (HCT-116) was 0.537 µM and the TGI (HCT-116; read-out: Log TGI (converted)) was 16.2 µM. For the same molecule, the GI50 (NCI-H522) was 0.912 µM, the TGI (NCI-H522; read-out: Log TGI (converted)) was 6.31 µM and the GI50 (HCC 2998) was 1 µM. It also gave a TGI (HCC 2998; read-out: Log TGI (converted)) of 18.2 µM, a GI50 (NCI-H23) of 1.07 µM and a TGI (NCI-H23; read-out: Log TGI (converted)) of 22.9 µM. For the same molecule, the GI50 (EKVX) was 1.91 µM, the TGI (EKVX; read-out: Log TGI (converted)) was 123 µM and the GI50 (RXF 393) was 0.759 µM. For the same molecule, the TGI (RXF 393; read-out: Log TGI (converted)) was 7.08 µM, the GI50 (SK-MEL-28) was 8.91 µM and the TGI (SK-MEL-28; read-out: Log TGI (converted)) was 155 µM. It also gave a GI50 (Hs-578T) of 7.41 µM, a TGI (Hs-578T; read-out: Log TGI (converted)) of 182 µM and a GI50 (SK-MEL-5) of 3.55 µM. For the same molecule, the TGI (SK-MEL-5; read-out: Log TGI (converted)) was 16.6 µM, the GI50 (CCRF-CEM) was 0.155 µM and the TGI (CCRF-CEM; read-out: Log TGI (converted)) was 25.7 µM. It also gave a GI50 (HOP-92) of 0.741 µM, a TGI (HOP-92; read-out: Log TGI (converted)) of 24 µM and a GI50 (COLO 205) of 1.7 µM. For the same molecule, the TGI (COLO 205; read-out: Log TGI (converted)) was 8.91 µM, the GI50 (OVCAR-3) was 0.708 µM and the TGI (OVCAR-3; read-out: Log TGI (converted)) was 6.76 µM. The GI50 (UACC-62) was 0.501 µM, the TGI (UACC-62; read-out: Log TGI (converted)) was 4.57 µM and the GI50 (MDA-MB-435) was 0.851 µM. For the same molecule, the TGI (MDA-MB-435; read-out: Log TGI (converted)) was 32.4 µM, the GI50 (SF-539) was 1.02 µM and the TGI (SF-539; read-out: Log TGI (converted)) was 69.2 µM.
